Experimental data reported in article PMC4132908, “Genome-wide annotation and functional identification of aphid GLUT-like sugar transporters” (BMC Genomics, 2014).

Molecular target: T1, ApST4 (A. pisum sugar transporter 4) (Acyrthosiphon pisum, UniProt A0A8R2H6Y5)
T1 sequence (A0A8R2H6Y5 64-552): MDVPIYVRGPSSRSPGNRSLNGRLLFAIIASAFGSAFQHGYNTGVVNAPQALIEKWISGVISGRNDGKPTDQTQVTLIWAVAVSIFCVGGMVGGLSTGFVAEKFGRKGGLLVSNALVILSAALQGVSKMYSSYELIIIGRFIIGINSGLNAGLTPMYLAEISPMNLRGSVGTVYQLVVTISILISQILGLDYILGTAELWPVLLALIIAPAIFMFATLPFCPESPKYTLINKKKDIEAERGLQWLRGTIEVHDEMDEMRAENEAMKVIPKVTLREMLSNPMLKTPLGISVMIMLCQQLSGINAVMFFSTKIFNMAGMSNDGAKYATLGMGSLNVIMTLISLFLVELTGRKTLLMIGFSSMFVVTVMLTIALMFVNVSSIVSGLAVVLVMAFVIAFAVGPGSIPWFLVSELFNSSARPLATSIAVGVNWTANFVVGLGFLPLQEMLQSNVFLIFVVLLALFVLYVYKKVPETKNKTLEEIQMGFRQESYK
Assay: competition with […]-fructose uptake in whole yeast cells
Assay type: cell-based
Details: 50 mM 14C-fructose; 100 mM unlabelled competitor; pH 7.0; 30 °C; 10 min

SMILES | % reduction of 14C-fructose uptake at 100 mM
OC[C@H]1OC(O)[C@H](O)[C@@H](O)[C@H]1O (some centres unmarked) [galactose] | ~ 21%
OC[C@H]1OC(O)[C@@H](O)[C@@H](O)[C@@H]1O (some centres unmarked) [mannose] | > 50%
